Test results taken from ChEMBL document CHEMBL1153155, “Ring-fused pyrazole derivatives as potent inhibitors of lymphocyte-specific kinase (Lck): Structure, synthesis, and SAR” (Bioorg Med Chem Lett, 2010).

Columns and labels:
Lymphocyte = assay: Immunosuppressive activity in C57BL/6 mouse lymphocytes cocultured with mitomycin C-stimulated BALB/c mouse splenocyte assessed as [3H]thymidine incorporation after 72 hrs by mixed lymphocyte reaction
[1] = biological target: Dual specificity mitogen-activated protein kinase kinase 1 (Homo sapiens, UniProt Q02750); assay: Inhibition of MEK1
Sequence of Dual specificity mitogen-activated protein kinase kinase 1 (Q02750 whole entry): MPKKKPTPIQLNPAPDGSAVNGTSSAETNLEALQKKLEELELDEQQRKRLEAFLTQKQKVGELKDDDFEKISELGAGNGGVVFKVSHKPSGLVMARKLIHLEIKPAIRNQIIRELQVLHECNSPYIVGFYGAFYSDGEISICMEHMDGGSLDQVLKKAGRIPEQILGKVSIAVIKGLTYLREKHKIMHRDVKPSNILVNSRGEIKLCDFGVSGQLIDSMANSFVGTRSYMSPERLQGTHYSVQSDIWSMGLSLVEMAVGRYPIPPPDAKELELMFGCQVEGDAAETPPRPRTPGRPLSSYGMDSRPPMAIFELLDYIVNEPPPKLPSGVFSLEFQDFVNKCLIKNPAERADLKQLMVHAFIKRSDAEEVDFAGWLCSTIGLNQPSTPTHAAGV

[2] = biological target: T1, Calcium/calmodulin-dependent protein kinase type IV (Homo sapiens, UniProt Q16566); assay: Inhibition of CamK4
T1 sequence (Q16566 whole entry): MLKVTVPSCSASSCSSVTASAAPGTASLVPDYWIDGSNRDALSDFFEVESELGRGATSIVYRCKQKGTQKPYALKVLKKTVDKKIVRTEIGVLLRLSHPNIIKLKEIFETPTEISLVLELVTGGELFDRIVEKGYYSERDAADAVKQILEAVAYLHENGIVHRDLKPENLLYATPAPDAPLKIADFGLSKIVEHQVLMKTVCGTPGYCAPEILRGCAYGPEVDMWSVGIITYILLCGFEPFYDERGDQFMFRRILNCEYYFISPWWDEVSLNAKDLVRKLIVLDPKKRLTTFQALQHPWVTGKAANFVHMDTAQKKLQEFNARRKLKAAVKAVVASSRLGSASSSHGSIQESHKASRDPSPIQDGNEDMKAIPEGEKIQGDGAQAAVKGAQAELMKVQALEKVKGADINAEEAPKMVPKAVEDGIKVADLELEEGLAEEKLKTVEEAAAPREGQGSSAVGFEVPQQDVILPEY

[3] = biological target: T2, Tyrosine-protein kinase ZAP-70 (Homo sapiens, UniProt P43403); assay: Inhibition of Zap70
T2 sequence (P43403 whole entry): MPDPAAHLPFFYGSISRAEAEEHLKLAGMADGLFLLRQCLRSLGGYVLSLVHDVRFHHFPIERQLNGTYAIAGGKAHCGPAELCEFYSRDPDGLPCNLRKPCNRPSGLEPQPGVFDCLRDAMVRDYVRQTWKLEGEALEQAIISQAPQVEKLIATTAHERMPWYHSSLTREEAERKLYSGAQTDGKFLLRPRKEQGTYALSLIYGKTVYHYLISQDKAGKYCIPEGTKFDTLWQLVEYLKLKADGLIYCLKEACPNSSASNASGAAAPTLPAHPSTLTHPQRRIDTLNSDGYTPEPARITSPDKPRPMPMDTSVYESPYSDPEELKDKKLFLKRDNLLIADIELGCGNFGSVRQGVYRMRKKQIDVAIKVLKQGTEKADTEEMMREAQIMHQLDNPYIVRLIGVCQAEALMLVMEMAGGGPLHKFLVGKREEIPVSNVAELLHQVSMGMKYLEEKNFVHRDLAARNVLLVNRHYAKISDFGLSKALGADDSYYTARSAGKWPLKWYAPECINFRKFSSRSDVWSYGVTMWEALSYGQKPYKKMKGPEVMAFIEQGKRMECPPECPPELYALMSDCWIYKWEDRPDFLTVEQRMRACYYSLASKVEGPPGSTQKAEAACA

[4] = Inhibition of PKA
[5] = biological target: Proto-oncogene tyrosine-protein kinase Src (Homo sapiens, UniProt P12931); assay: Inhibition of SRC
Sequence of Proto-oncogene tyrosine-protein kinase Src (P12931 2-536 limits assumed): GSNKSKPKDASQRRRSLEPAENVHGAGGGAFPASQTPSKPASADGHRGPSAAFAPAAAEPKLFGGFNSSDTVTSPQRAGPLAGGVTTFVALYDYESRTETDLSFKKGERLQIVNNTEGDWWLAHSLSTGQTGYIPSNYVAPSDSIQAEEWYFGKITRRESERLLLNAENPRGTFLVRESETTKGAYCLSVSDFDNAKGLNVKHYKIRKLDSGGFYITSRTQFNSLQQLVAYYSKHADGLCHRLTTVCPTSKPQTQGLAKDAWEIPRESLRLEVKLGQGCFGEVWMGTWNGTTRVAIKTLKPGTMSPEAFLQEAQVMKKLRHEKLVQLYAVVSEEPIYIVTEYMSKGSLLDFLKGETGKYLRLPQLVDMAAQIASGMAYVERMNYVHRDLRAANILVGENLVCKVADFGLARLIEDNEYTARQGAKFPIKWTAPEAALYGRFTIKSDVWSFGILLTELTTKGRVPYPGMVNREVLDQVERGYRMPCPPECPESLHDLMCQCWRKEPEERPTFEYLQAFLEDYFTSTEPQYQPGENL

[6] = biological target: Protein kinase C alpha type (Homo sapiens, UniProt P17252); assay: Inhibition of PKCalpha
[7] = biological target: Tyrosine-protein kinase Lck (Homo sapiens, UniProt P06239); assay: Inhibition of GST-tagged human LCK by scintillation counting
Sequence of Tyrosine-protein kinase Lck (P06239 whole entry): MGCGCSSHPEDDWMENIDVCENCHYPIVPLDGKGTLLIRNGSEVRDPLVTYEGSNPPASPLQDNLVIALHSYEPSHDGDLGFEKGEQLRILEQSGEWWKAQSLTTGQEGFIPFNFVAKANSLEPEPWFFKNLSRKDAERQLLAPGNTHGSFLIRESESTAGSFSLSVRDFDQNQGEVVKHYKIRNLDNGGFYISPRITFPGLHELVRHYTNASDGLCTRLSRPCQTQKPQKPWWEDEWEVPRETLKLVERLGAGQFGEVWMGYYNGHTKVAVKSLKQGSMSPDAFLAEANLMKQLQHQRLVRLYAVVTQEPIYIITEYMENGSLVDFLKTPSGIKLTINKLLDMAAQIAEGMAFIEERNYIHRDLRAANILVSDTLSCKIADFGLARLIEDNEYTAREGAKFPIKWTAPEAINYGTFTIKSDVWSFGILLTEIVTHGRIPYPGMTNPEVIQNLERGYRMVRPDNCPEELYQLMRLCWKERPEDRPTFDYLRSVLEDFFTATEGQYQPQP

[8] = biological target: Mitogen-activated protein kinase 1 (Homo sapiens, UniProt P28482); assay: Inhibition of MAPK1
Sequence of Mitogen-activated protein kinase 1 (P28482 whole entry): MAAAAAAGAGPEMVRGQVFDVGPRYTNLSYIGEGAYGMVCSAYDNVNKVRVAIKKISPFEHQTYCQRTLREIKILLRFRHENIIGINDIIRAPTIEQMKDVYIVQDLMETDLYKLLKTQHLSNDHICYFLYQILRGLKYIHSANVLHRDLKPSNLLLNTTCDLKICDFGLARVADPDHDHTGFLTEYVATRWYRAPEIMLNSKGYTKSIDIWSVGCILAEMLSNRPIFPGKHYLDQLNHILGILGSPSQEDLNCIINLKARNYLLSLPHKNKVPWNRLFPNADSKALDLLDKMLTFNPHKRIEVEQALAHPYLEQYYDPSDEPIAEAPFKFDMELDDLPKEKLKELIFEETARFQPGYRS

[9] = biological target: Cyclin-dependent kinase 1 (Homo sapiens, UniProt P06493); assay: Inhibition of CDK1
Sequence of Cyclin-dependent kinase 1 (P06493 whole entry): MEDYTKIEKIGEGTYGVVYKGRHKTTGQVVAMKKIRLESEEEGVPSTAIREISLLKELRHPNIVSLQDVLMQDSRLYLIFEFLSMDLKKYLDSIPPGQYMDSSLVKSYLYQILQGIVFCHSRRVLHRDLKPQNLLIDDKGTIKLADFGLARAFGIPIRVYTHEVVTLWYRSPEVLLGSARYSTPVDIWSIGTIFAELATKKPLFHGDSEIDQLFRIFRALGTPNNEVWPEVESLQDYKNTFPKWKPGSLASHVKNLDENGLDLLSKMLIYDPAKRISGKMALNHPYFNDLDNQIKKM

[10] = biological target: RAC-alpha serine/threonine-protein kinase (Homo sapiens, UniProt P31749); assay: Inhibition of PKBalpha
Sequence of RAC-alpha serine/threonine-protein kinase (P31749 whole entry): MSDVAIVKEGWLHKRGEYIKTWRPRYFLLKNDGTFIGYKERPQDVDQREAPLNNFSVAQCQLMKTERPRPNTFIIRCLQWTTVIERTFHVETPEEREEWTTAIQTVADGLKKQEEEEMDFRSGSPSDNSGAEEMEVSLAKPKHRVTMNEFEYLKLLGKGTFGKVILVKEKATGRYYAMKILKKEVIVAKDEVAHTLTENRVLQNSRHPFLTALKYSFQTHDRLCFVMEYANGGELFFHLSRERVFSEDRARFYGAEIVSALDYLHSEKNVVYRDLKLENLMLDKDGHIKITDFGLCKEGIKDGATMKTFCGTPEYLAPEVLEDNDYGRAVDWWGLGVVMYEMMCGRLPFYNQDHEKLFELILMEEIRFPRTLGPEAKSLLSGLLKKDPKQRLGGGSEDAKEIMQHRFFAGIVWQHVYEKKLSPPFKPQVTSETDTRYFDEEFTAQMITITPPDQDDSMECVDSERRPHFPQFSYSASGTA

[11] = biological target: Tyrosine-protein kinase CSK (Homo sapiens, UniProt P41240); assay: Inhibition of Csk

SMILES	IC50 (Lymphocyte) [nM]	further results
NC(=O)c1c(-c2ccc(Oc3ccccc3)cc2)nn2c1Nc1ccc(OCc3ccccn3)cc1CC2	8.4	
NC(=O)COc1ccc2c(c1)Nc1c(C(N)=O)c(-c3ccc(Oc4ccccc4)cc3)nn1CC2	16	
NC(=O)c1c(-c2ccc(Oc3ccccc3)cc2)nn2c1Nc1cc(OCCN3CCOCC3)ccc1CC2	15	
COc1ccc2c(c1)Nc1c(C(N)=O)c(-c3ccc(Oc4ccccc4)cc3)nn1CC2	300	
CN(C)CCCOc1ccc2c(c1)Nc1c(C(N)=O)c(-c3ccc(Oc4ccccc4)cc3)nn1CC2	12	
NC(=O)c1c(-c2ccc(Oc3ccccc3)cc2)nn2c1Nc1cc(OCCO)ccc1CC2	58	
CN1CCN(CCOc2ccc3c(c2)Nc2c(C(N)=O)c(-c4ccc(Oc5ccccc5)cc4)nn2CC3)CC1	12	
CN(C)CCOc1ccc2c(c1)CCn1nc(-c3ccc(NC(=O)Nc4ccccc4)cc3)c(C(N)=O)c1N2	50	
CC(C)CCCOc1ccc2c(c1)Nc1c(C(N)=O)c(-c3ccc(Oc4ccccc4)cc3)nn1CC2	620	IC50 [7]: > 100 nM
CC(=O)COc1ccc2c(c1)Nc1c(C(N)=O)c(-c3ccc(Oc4ccccc4)cc3)nn1CC2	61	
CN(C)CCOc1ccc2c(c1)CCn1nc(-c3ccc(Nc4ccccc4)cc3)c(C(N)=O)c1N2	8.2	
NC(=O)c1c(-c2ccc(Oc3ccccc3)cc2)nn2c1Nc1ccc(OCc3ccncc3)cc1CC2	4.4	
NC(=O)c1c(-c2ccc(Oc3ccccc3)cc2)nn2c1Nc1ccc(OCCO)cc1CC2	1.2	
CN1CCN(CCOc2ccc3c(c2)CCn2nc(-c4ccc(Oc5ccccc5)cc4)c(C(N)=O)c2N3)CC1	6.7	
CN(C)CCOc1ccc2c(c1)CCn1nc(-c3ccc(N)cc3)c(C(N)=O)c1N2	180	
NC(=O)c1c(-c2ccc(Oc3ccccc3)cc2)nn2c1Nc1cc(OCC(=O)O)ccc1CC2	> 1000	
NC(=O)c1c(-c2ccc(Oc3ccccc3)cc2)nn2c1Nc1cc(OCc3cccnc3)ccc1CC2	52	
NCCOc1ccc2c(c1)Nc1c(C(N)=O)c(-c3ccc(Oc4ccccc4)cc3)nn1CC2	25	

More lines, in order of falling IC50 (Lymphocyte), values ahead:

IC50 (Lymphocyte) [nM]	SMILES	further results
88	NC(=O)COc1ccc2c(c1)CCn1nc(-c3ccc(Oc4ccccc4)cc3)c(C(N)=O)c1N2	
38	CN(C)CCOc1ccc2c(c1)CCn1nc(-c3ccc(O)cc3)c(C(N)=O)c1N2	
23	CN(C)CCOc1ccc2c(c1)CCn1nc(-c3ccc(NC(=O)OCc4ccccc4)cc3)c(C(N)=O)c1N2	
21	CN(C)CCOc1ccc2c(c1)CCn1nc(-c3ccc(NC(=O)Nc4c(Cl)cccc4Cl)cc3)c(C(N)=O)c1N2	
6.4	CN(C)CCOc1ccc2c(c1)Nc1c(C(N)=O)c(-c3ccc(Oc4ccccc4)cc3)nn1CC2	
1.5	NC(=O)c1c(-c2ccc(Oc3ccccc3)cc2)nn2c1Nc1ccc(OCc3cccnc3)cc1CC2	
1.3	NCCOc1ccc2c(c1)CCn1nc(-c3ccc(Oc4ccccc4)cc3)c(C(N)=O)c1N2	
1.3	CN(C)CCOc1ccc2c(c1)CCn1nc(-c3ccc(NCc4c(Cl)cccc4Cl)cc3)c(C(N)=O)c1N2	
1.1	NC(=O)c1c(-c2ccc(Oc3ccccc3)cc2)nn2c1Nc1ccc(OCCN3CCOCC3)cc1CC2	
0.85	CN(C)CCCOc1ccc2c(c1)CCn1nc(-c3ccc(Oc4ccccc4)cc3)c(C(N)=O)c1N2	
0.74	CN(C)CCOc1ccc2c(c1)CCn1nc(-c3ccc(Oc4ccccc4)cc3)c(C(N)=O)c1N2	IC50 [1]: > 10000 nM; IC50 [2]: > 10000 nM; IC50 [3]: > 1000 nM; IC50 [4]: > 10000 nM; IC50 [5]: 0.6 nM; IC50 [6]: > 10000 nM; IC50 [7]: 0.72 nM; IC50 [8]: > 10000 nM; IC50 [9]: > 10000 nM; IC50 [10]: > 10000 nM; IC50 [11]: 1.7 nM
